# Square brackets hold non-standard residues; d marks the D form. Peptide text beside a SMILES is read from it.
# System: pituitaries removed from 20 day old female rats
# Test: In Vitro Growth Hormone Release Study
# Assay type: cell-based, rat
# Settings: mean ± SEM, control -180 ± 108
# Description: Female rats of the CD-1 strain were housed in a constant temperature room at 24° C. with 14 hours light and 10 hours darkness. The rats were fed Purina brand rat chow ab libitum.
# All studies were started between 0800 and 1000 hours.
# Pituitaries were removed from 20 day old female rats. Two pituitaries were incubated at 36° C. in 1 ml of lactated Ringer's solution in 10 ml polytetrafluoroethylene beakers in a Dubnoff Shaker (90 cycles/min.). The pituitaries were incubated a total of 4 hours (P1, P2, I3, and I4). After two successive one hour preincubation periods (P1, P2), the peptide was added to the incubation medium hourly for 2 hours (I3, I4).
# This in vitro study was performed in triplicate and a standard radioimmunoassay of growth hormone present in the incubation medium was performed in duplicate. The hormonal activity was calculated as the difference (Δ) of growth hormone (GH) levels between I3, I4 and P2, i.e., (I3 -P2) and (I4 -P2). P values were calculated by Students' t test using six growth hormone values for each value recorded.
# The growth hormone radioimmunoassay reagents were distributed by the National Institute of Arthritis and […] (NIAMDD) program. The growth hormone values were calculated in terms of nanograms (ng) of a rat standard with a growth hormone potency of 0.61 units/mg.
compound,measurement,setting,value
NCCCC[C@@H](N)C(=O)N[C@@H](Cc1ccc(O)cc1)C(=O)N[C@H](Cc1c[nH]c2ccccc12)C(=O)N[C@H](Cc1c[nH]c2ccccc12)C(=O)N[C@@H](Cc1ccccc1)C(N)=O [H2 N--D--Lys--Tyr--D--Trp--D--Trp--Phe--CONH2] (H-[dK]Y[dW][dW]F-NH2),"IN VITRO GROWTH HORMONE RELEASE (ΔGH, I3-P2 and I4-P2)","peptide 1μg, P Value <0.01",1046 ± 266 ngΔGH/ml incubation medium
same,"IN VITRO GROWTH HORMONE RELEASE (ΔGH, I3-P2 and I4-P2)","peptide 20μg, P Value <0.001",1487 ± 197 ngΔGH/ml incubation medium
same,"IN VITRO GROWTH HORMONE RELEASE (ΔGH, I3-P2 and I4-P2)","peptide 100μg, P Value <0.001",1654 ± 329 ngΔGH/ml incubation medium
